In test [1] the test system is FGFR; cerebellar granule neurons (CGNs). Put plainly: Neurite outgrowth in CGNs transfected with dominant negative FGFR (dnFGFR). It is filed as cell-based, Wistar rat. To be noted: 24 h, ARTN 0.21 nM or artefin 1.4 μM. As for the experimental part:
Cerebellar granule neurons (CGNs) were prepared from 7-day-old Wistar rat pups (Charles River Laboratories, Sulzfeld, Germany) as previously described ([Schousboe et al., 1989]). Briefly, pups were decapitated, and the cerebellum was removed and cleared from blood vessels and meninges in ice-cold modified Krebs-Ringer buffer. The cerebellum was dissociated by chopping and trypsinization. Cells were washed in Krebs-Ringer buffer containing DNAse I (Sigma, St. Louis, MO, United States) and soybean trypsin inhibitor (Sigma) to stop trypsinization, and the remaining tissue pieces were pelleted by centrifugation. […]
To estimate neurite outgrowth, neurons were fixated 24 h after stimulation and stained with rabbit anti-growth-associated-protein-43 (GAP-43) antibody (Chemicon International, Inc., Temecula, CA, United States) or anti-GFP antibody (for transfection experiment) overnight at 4°C followed by incubation with secondary Alexa-conjugated goat anti-rabbit antibodies (Invitrogen, Taastrup, Denmark). In case of experiments with plasmid transfection, the transfection efficiency was ca. 20% of total cells and the neurite outgrowth was evaluated only in GFP-positive, i.e., transfected, cells. […]

In test [2] the test system is cerebellar granule neurons (CGNs). The test can be described thus: Survival assay of CGNs induced to undergo apoptosis by potassium withdrawal. It is filed as cell-based, Wistar rat. Conditions: for neuronal survival in apoptotic medium: 48 h, 5 mM KCl, serially diluted ARTN or artefin, paired t-test; for maximal neuroprotective effect / maximum level of neuronal survival: control 40 mM KCl = 100%, mean of five experiments. As for the experimental part: Cerebellar granule neurons (CGNs) were prepared from 7-day-old Wistar rat pups (Charles River Laboratories, Sulzfeld, Germany) as previously described ([Schousboe et al., 1989]). Briefly, pups were decapitated, and the cerebellum was removed and cleared from blood vessels and meninges in ice-cold modified Krebs-Ringer buffer. The cerebellum was dissociated by chopping and trypsinization. Cells were washed in Krebs-Ringer buffer containing DNAse I (Sigma, St. Louis, MO, United States) and soybean trypsin inhibitor (Sigma) to stop trypsinization, and the remaining tissue pieces were pelleted by centrifugation. Cells were then washed in Krebs-Ringer buffer containing Ca^2+ and Mg^2+ and re-suspended in appropriate Neurobasal^TM medium (Invitrogen, Taastrup, Denmark) with supplements depending on the experiment.
Cerebellar granule neurons were re-suspended in Neurobasal^TM-A medium supplemented with 2% (v/v) B27 (Invitrogen, Taastrup, Denmark), 0.5% (v/v) glutamax, 100 U/ml penicillin, 100 μg/ml streptomycin, and 40 mM KCl, and seeded at a density of 1 × 10^5 cells/well in 8-well LabTek Permanox chamber slides (Nunc, Roskilde, Denmark) coated with poly-L-lysine (10 μg/ml). To avoid proliferation of non-neuronal cells, cytosine-β-D-arabinofuranoside (Sigma) was added to cells 24 h after plating. CGNs were allowed to differentiate for 7 days in vitro (DIV) in the presence of 40 mM KCl before being induced to undergo apoptosis by changing the medium to one containing only 5 mM KCl (apoptotic medium) ([D’Mello et al., 1993]). At 7 DIV, cells were washed and stimulated with serially diluted ARTN or artefin diluted in the apoptotic medium. Three different controls were included; (1) cells grown in medium containing 40 mM KCl served as a positive control; (2) cells grown in medium containing 5 mM KCl served as a negative control; (3) cells grown in medium containing 5 mM KCl supplemented with 50 ng/ml insulin growth factor-1 (IGF-1) (Life Technology), a known anti-apoptotic factor for CGNs in this setup ([Galli et al., 1995]). After 48 h following the induction of apoptosis, cells were fixated in 4% formaldehyde for 30 min, and nuclear morphology was visualized with Hoechst 33258 staining (Invitrogen, Taastrup, Denmark) (Figure 2A). Images of cells were obtained using a Nikon Diaphot 200 fluorescent microscope equipped with a Nikon Plan 40× objective (Nikon, Tokyo, Japan) and coupled to a black-white video camera. Images of at least 1000 cells/well in different fields of view were analyzed, and the percentage of viable neurons was estimated as the ratio of live cells (non-pyknotic cells with dispersed chromatin) to the total number of neurons.
FIGURE 2 Effect of ARTN and artefin on survival of cerebellar granular neurons (CGNs) induced to undergo apoptosis. CGNs were differentiated for 7 days in the presence of 40 mM KCl before apoptosis was induced by potassium withdrawal. (A) Nuclear morphology of CGNs after Hoechst 33258 staining. […] Scale bar: 100 μm. Cells were grown for 48 h in media, containing 40 mM KCl, apoptotic medium (5 mM KCl) or apoptotic medium supplemented with 50 ng/ml IGF-1 (positive control) (B), serially diluted ARTN (C), or artefin (D). Each experiment was performed in the presence of the three controls (40 mM KCl, 5 mM KCl, and 5 mM KCl plus IGF-1), and the survival effect of the growth factor and the peptide was compared to its own apoptotic control (5 mM KCl). Results from the five experiments are expressed as percentage of 40 mM KCl control set at 100% and presented as mean ± SEM. The anti-apoptotic effect of ARTN and artefin was tested using Student’s paired t-test, where ^∗p < 0.05; ^∗∗p < 0.01; ^∗∗∗p < 0.001; ^∗∗∗∗p < 0.0001.

Where [3] appears, read: 48 h in apoptotic medium (5 mM KCl).

Bridge positions count the residues as written; N and C are the ends. Ends that are not written are not given here. I, II: the chains in the order shown.

Consider “I: RSPHDLSLASLLGAGKK-NH2 / II: RSPHDLSLASLLGAGK / III: RSPHDLSLASLLGAG / IV: RSPHDLSLASLLGAG (amide I:16-IV:C, I:17-II:C, II:16-III:C; C-terminus assumed) [artefin]”, for which, in test [1], the “neurite outgrowth effect in CGNs expressing dnFGFR” value is given as “abolished in CGNs expressing dnFGFR”. The “neuronal survival in apoptotic medium” value in test [2] is reported as “significantly promoted neuronal survival”. Moreover, in test [2] (setting [3]), the “concentration of maximum neuronal survival” value was determined as 0.156 µM and the “maximal neuroprotective effect / maximum level of neuronal survival” value is reported as 72.95 % of control.

B1: recombinant human Artemin (ARTN) (ligand, UniProt Q5T4W7 108-220, looked up)
chain: AGGPGSRARAAGARGCRLRSQLVPVRALGLGHRSDELVRFRFCSGSCRRARSPHDLSLASLLGAGALRPPPGSRPVSQPCCRPTRYEAVSFMDVNSTWRTVDRLSATACGCLG
notes: Artemin (ARTN), human, UniProt D3DPX9; source: bought: R&D Systems
As for B1, the “neurite outgrowth effect in CGNs expressing dnFGFR” value in test [1] is reported as “abolished in CGNs expressing dnFGFR”. Moreover, in test [2], the “neuronal survival in apoptotic medium” value is “promoted the survival of CGNs in culture in a dose-dependent manner”. In test [2] (setting [3]), the “concentration of maximal neuroprotective effect” value was found to be 4 pM and the “maximal neuroprotective effect / maximum level of neuronal survival” value is recorded as 68.3 % of control.
